Results: patent US20160353747A1, “COMPOSITIONS AND METHODS FOR ACHIEVING A BIOLOGICAL EFFECT IN TARGET VEGETATION” (Ento Bio LLC, priority 2015, published 2016)

Test system: zinnia (Zinnia peruviana var. “Giant Dahlia”) seedlings
Experiment: Herbicidal effect (percent control) on zinnia seedlings
Format: in vivo
Conditions: Enz 0 mg, 2 mL dose
Method: In one example, combinations of cellulase and hemicellulase from Trichoderma viride (i.e. depolymerase, labeled “Enz” in Table 1), bovine serum albumin (i.e. non-depolymerase protein, labeled “BSA” in Table 1), and glyphosate (labeled “Gly” in Table 1) are blended and applied in 2 mL doses directly to zinnia (Zinnia peruviana var. “Giant Dahlia”) seedlings at the first true leaf stage. Treatments ranged from 0-1.6 mg of depolymerase that consisted of cellulase from Trichoderma viride and hemicellulase from Aspergillus niger in a ratio of 10.5:6, respectively; non-depolymerase BSA from 0-24 mg; and glyphosate from 0-0.3 mg. […] Herbicidal effect was assessed 12 days after treatment (DAT). Percent control ratings ascertained the extent of control, i.e. reduction in growth, and were scored on a basis of 0 to 100 where 100 represents complete killing of the plants and 0 represents no reduction in growth as compared to the untreated control.

Row | Molecule | Percent Control 12 DAT (Gly 0 mg, BSA 0.24 mg) | Percent Control 12 DAT (Gly 0 mg, BSA 2.4 mg) | Percent Control 12 DAT (Gly 0 mg, BSA 24 mg) | Percent Control 12 DAT (Gly 0.003 mg, BSA 0 mg) | Percent Control 12 DAT (Gly 0.03 mg, BSA 0 mg) | Percent Control 12 DAT (Gly 0.3 mg, BSA 0 mg)
1 | bovine serum albumin [BSA] | 3% | 7% | 13% |  |  | 
2 | O=C(O)CNCP(=O)(O)O [Gly, glyphosate] |  |  |  | 0% | 28% | 28%
